Assay results: patent US9597406B2, “Controlled release method for a pharmaceutical composition composed of chelating complex micelles” (Original BioMedicals Co., Ltd, priority 2012, dated 2017)

How the values were obtained:
[1] = MTT cell viability test of doxorubicin CCM (FePD) with and without deferoxamine; format: cell-based, mouse; details: mouse, BNLCL.2 mouse embryonic liver cells, 2 h incubation, BNLCL.2 cells
Method: (§1) The cell viability test of doxorubicin CCM (FePD) was examined with and without adding metal chelator deferoxamine. MTT (3-(4,5-cimethylthiazol-2-yl)-2,5-diphenyl tetrazolium bromide) assay was used to assess the cytotoxicity of cells treated with FePD and deferoxamine.
(§2) The mouse embryonic liver cells (BNLCL.2) (100 μL) were inoculated onto a 96-well plate with density 1×10^5 cells/mL and cultured for 24 hr at 37° C. with 5% CO2 before subjecting to the test. After removal of supernatant, 100 μL of each sample was added to the cells and incubated for 2 hours (Table 1). The samples were sterilized by using 0.22 μm filters prior to treating the cells. The plate was then washed with PBS (phosphate buffered saline) and incubated with fresh medium for 24 hours. After removal of supernatant and washed with PBS, 10 μL MTT solution was added to the cells and incubated for 4 hours. The absorbance at 570 nm was measured (BioTek, Synergy TM2, USA).

[2] = system: mouse embryonic liver cells (BNLCL.2); assay: as above; format: cell-based; details: 4 μM, 2 h incubation, then 24 h fresh medium, BNLCL.2 cells, 4 µM
Method: as §1, §2

| Compound | viability at 2 h, 13.5 µM ([1]; 13.5 μM, then 24 h fresh medium) [%] | viability at 2 h, 4 μM ([1]; 4 μM, then 24 h fresh medium) [%] | viability at 2 h, 4 μM ([1]; Group G: 4 μM + deferoxamine (13.5 μM)) [%] | Cell viability (%) [2] [%] |
| --- | --- | --- | --- | --- |
| CC(=O)N(O)CCCCCNC(=O)CCC(=O)N(O)CCCCCNC(=O)CCC(=O)N(O)CCCCCN [deferoxamine] | 104 |  |  |  |
| COc1cccc2c1C(=O)c1c(O)c3c(c(O)c1C2=O)C[C@@](O)(C(=O)CO)C[C@@H]3O[C@H]1C[C@H](N)[C@H](O)[C@H](C)O1 [doxorubicin] |  | 74.7 | 78.3 | 74.7292 |
